# Biological target: T1, Lmo1603 (Listeria monocytogenes, UniProt Q8Y6T0)
# T1 construct: tag removal not mentioned
# Experiment: p-nitroaniline release, absorbance […] nm
# Type: biochemical
# Settings: 50 mM Tris-HCl pH 8.5, 2 mM substrate, 5 uM enzyme, 12 h
# T1 sequence (Q8Y6T0 entry or part of it): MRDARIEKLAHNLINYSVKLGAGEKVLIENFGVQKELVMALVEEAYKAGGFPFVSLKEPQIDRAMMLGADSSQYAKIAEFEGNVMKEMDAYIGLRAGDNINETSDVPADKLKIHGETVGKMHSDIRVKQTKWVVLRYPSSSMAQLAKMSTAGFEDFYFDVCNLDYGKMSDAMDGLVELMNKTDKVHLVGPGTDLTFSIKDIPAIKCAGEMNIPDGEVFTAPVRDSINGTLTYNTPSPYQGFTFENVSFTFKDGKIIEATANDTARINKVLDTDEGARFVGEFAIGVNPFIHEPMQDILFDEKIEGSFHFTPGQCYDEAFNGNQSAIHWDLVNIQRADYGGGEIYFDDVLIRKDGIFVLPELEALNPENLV
SMILES,"p-nitroaniline release, absorbance 405 nm (cobalt-activated enzyme)","p-nitroaniline release, absorbance 405 nm"
N=C(N)NCCC[C@H](N)C(=O)Nc1ccc([N+](=O)[O-])cc1 [Arg-pNA],"Lmo1603 showed the highest activity towards Arg-pNA, followed by Leu-pNA and Ala-pNA",
CC(C)C[C@H](N)C(=O)Nc1ccc([N+](=O)[O-])cc1 [Leu-pNA],,"Lmo1603 showed the highest activity towards Arg-pNA, followed by Leu-pNA and Ala-pNA"

# Source: publication PMC4661694, “Aminopeptidase T of M29 Family Acts as A Novel Intracellular Virulence Factor for Listeria monocytogenes Infection” (Scientific Reports, 2015)
